Data from patent publication US20260007621A1, “Pharmaceutical Combinations for Treatment” (priority 2022, published 2026).
“Also recorded” adds a separate entry of the source.

Legend:
[1] = test system: recurring coughs, sneezing, headache, runny nose, pain, cold, fever, sore throat, sinus pressure; test: Clinical study: one subject rates relief from new pharmaceutical combinations against previous medication; type: in vivo, human; details: 2.5 mg cetirizine, 5 mg bilastine, 2.5 mg loratadine or 30 mg fexofenadine, each dose after 3 hours; versus 10, 20, 10 or 120 mg once
Protocol: The subject had recurring coughs, sneezing, headache, runny nose, pain, cold, fever, sore throat, sinus pressure etc. They took medication including DM+GFN combination as well as antihistamines to cure it, namely: • a. Mucinex Expectorant Tablets (600 mg GFN/dose): 1 dose per 12 hours; • b. […] Labixten (20 mg Bilastine/dose): 1 dose per 24 hours. […] On each recurrence of cough and other symptoms a new pharmaceutical combination was given. The subject would then provide feedback on the improvement of their symptoms and rate the performance of the pharmaceutical composition in comparison to their previous medication experience.

[2] = test system: therapeutic relief of cough, cold and allergy symptoms; test: Inventor's findings on relief from GFN or antihistamines combined with IBF+APAP (and PE); no method given; type: in vivo, human; details: for therapeutic relief expressed as GFN amount: 'it is suggested'
Protocol: A normal 4 hourly dosage of DM and GFN is 20 mg and 400 mg respectively.

[3] = 6.25 mg PE administered with 500 mg APAP; cited from earlier work
[4] = in vivo; cited from earlier work

In the case of O=C(O)COCCN1CCN(C(c2ccccc2)c2ccc(Cl)cc2)CC1 (stereo not shown) [cetirizine], the “quarter dose administered 4 times daily versus normal full 24-hour dose of the same ingredient at once” value [1] is reported as “better effect; also recorded: performed therapeutically better”.
For COc1ccccc1OCC(O)CO (stereo not shown) [GFN, guaifenesin], the “therapeutic relief expressed as GFN amount” value ([2]; 100 mg GFN taken with 175-200 mg IBF and 275-575 mg APAP) was 143 mg GFN, the “therapeutic relief expressed as GFN amount” value ([2]; 200 mg GFN taken with 175-200 mg IBF and 275-575 mg APAP) was 286 mg GFN and the “increase in effectiveness of GFN when combined with IBF+APAP” value ([2]; in vivo) was “about 45%”. For the same molecule, the “GFN dose that, combined with IBF+APAP, gives the relief of a normal 4 hourly dosage of 20 mg DM and 400 mg GFN” value ([2]; without DM) was 280 mg.
With CC(C)(C(=O)O)c1ccc(C(O)CCCN2CCC(C(O)(c3ccccc3)c3ccccc3)CC2)cc1 (stereo not shown) [fexofenadine] the “quarter dose administered 4 times daily versus normal full 24-hour dose of the same ingredient at once” value [1] was “better effect; also recorded: performed therapeutically better”.
In the case of CNC[C@H](O)c1cccc(O)c1 [PE, Phenylephrine], the “PE dosage of similar effect” value [3] is given as roughly 10 mg and the “effectiveness compared with PSE” value [4] is given as “not as effective as PSE”.
With CCOC(=O)N1CCC(=C2c3ccc(Cl)cc3CCc3cccnc32)CC1 [loratadine] the “quarter dose administered 4 times daily versus normal full 24-hour dose of the same ingredient at once” value [1] was “better effect; also recorded: performed therapeutically better”.
With CCOCCn1c(C2CCN(CCc3ccc(C(C)(C)C(=O)O)cc3)CC2)nc2ccccc21 [bilastine] the “quarter dose administered 4 times daily versus normal full 24-hour dose of the same ingredient at once” value [1] was “better effect; also recorded: performed therapeutically better”.
